“Also recorded” adds a separate entry of the source.
How the values were obtained:
[1] = test system: IL-2 production in Jurkat cells; test: IL-2 production assay (immunosuppression assay); type: cell-based, human; conditions: for fold less potent than triptolide in the immunosuppression assay: inhibition of IL-2 production in Jurkat cells, relative to triptolide (FIGS. 4A-B)
Description: Test samples were diluted to 1 mM in complete tissue culture medium. Aliquots were placed in microculture plates that had been coated with anti-CD3 antibody (used to stimulate the production of IL-2 by Jurkat cells), and serial dilutions were prepared so that the final concentration would encompass the range of 0.001 to 10,000 nM in log increments. Cells from an exponentially expanding culture of Jurkat human T cell line (#TIB-152 obtained from American Type Culture Collection, Manassas, Va.) were harvested, washed once by centrifugation, re-suspended in complete tissue culture medium, and diluted to a concentration of 2×10^6 cells/ml. A volume of 50 μl of Jurkat cells (1×10^5 cells) was added to wells containing 100 μl of the diluted compounds, 50 μl of PMA (10 ng/ml) was added to each well, and the plates were incubated at 37° C. in a 5% CO2 incubator. After 24 hours, the plates were centrifuged to pellet the cells, 150 μl of supernatant was removed from each well, and the samples were stored at −20° C. The stored supernatants were analyzed for human IL-2 concentration using the Luminex 100 (Luminex Corporation, Austin, Tex.), Luminex microspheres coupled with anti-IL-2 capture antibody, and fluorochrome-coupled anti-IL-2 detection antibody. The data were expressed as pg/ml of IL-2.
The data were plotted as the concentration of compound versus IL-2 concentration. The results for PG763 (14-deoxy-14α-fluorotdptolide), compared with PG490 (triptolide) and a solvent control, are given in FIG. 2. Comparative data for other 14-substituted triptolides, 14α-hydroxytriptolide (also referred to as epitriptolide; designated PG524) and 14β-(methylthio)methyltriptolide (designated PG691), compared with PG490 (triptolide), are given in FIGS. 4A-B.

[2] = test system: human T cell lymphoma (Jurkat) cells; test: Cytotoxicity (MTT) assay; type: cell-based; conditions: 24 h, in comparison with triptolide (FIG. 1)
Description: Test compounds were dissolved in DMSO at a concentration of 20 mM. Further dilutions were done in RPMI 1640 medium (GIBCO, Rockville, Md.) supplemented with 10% Fetal Calf Serum (HyClone Laboratories, Logan, Utah).
Cytotoxicity of the compounds was determined in a standard MTT assay using Cell Proliferation Kit I (#1 465 007, Roche Diagnostics, Mannheim, Germany). Briefly, human T cell lymphoma (Jurkat) cells (4×10^5 per well) were cultured for 24 h, in 96-well tissue culture plates, in the presence of serial three-fold dilutions of test compounds or medium containing the same concentration of DMSO as in the test samples at each dilution point. The cultures were then supplemented with 10 μl/well MTT reagent for 4h and then with 0.1 ml/well solubilizing reagent for an additional 16 h. Optical density at 570 nm (OD570) was measured on a ThermoScan™ microplate reader (Molecular Devices, Menlo Park, Calif.). The data is presented as OD570 values versus concentration of the compounds. The results for PG763 (14-deoxy-14α-fluorotriptolide), compared with PG490 (triptolide) and a medium control, are given in FIG. 1.

[3] = test system: Jurkat human T lymphoma cell line; test: Annexin V apoptosis assay; type: cell-based; conditions: induction of apoptosis in Jurkat cells, 24 hours, relative to triptolide (FIGS. 3A-B)
Description: Test samples were diluted to 1 mM in complete tissue culture medium (RPMI 1640 medium plus 5% heat-inactivated fetal calf serum, 1% HEPES, 1% pen/strep, 1% glutamine). Aliquots were placed in microculture plates and serial dilutions were prepared so that the final concentration would encompass the range of 2 to 6,000 nM with half-log increments. Cells from an exponentially expanding culture of the Jurkat human T lymphoma cell line (#TIB-152 obtained from American Type Culture Collection, Manassas, Va.) were harvested, washed once by centrifugation, re-suspended in complete tissue culture medium, and further diluted to a concentration of 1×10^6 cells/ml. A volume of 100 μl of the cells (1×10^5 cells) was added to wells containing 100 μl of the diluted compounds, and the plates were incubated at 37° C. in a 5% CO2 incubator.
After 24 hours, the plates were centrifuged to pellet the cells, and the cells were washed twice with 2% heat-inactivated fetal calf serum in PBS. […] The contents of the wells were individually transferred into test tubes, and apoptosis was analyzed using a FACSCalibur flow cytometer (BD Immunocytometry Systems, San Jose, Calif.). Cells positive for Annexin V binding were considered to be apoptotic, and the data were calculated as percent apoptotic cells. […]

| SMILES | inhibition of IL-2 production in Jurkat cells ([1]; anti-CD3 and PMA stimulated, 24 hours, in comparison with triptolide (FIG. 2)) | cytotoxicity in Jurkat cells [2] | fold less potent than triptolide in the immunosuppression assay [1] | fold less potent than triptolide in the apoptosis assay [3] |
| --- | --- | --- | --- | --- |
| CC(C)[C@]12O[C@H]1[C@@H]1O[C@]13[C@]1(O[C@H]1C[C@H]1C4=C(CC[C@@]13C)C(=O)OC4)[C@H]2F [PG763, 14-deoxy-14α-fluorotriptolide] | nearly equivalent to that of triptolide; also recorded: in a dose-dependent manner, at concentrations comparable to those in similar assay using triptolide | nearly equivalent to that of triptolide; also recorded: in a dose-dependent manner, at concentrations comparable to those in similar assays using triptolide | – | – |
| CC(C)[C@]12O[C@H]1[C@@H]1O[C@]13[C@]1(O[C@H]1C[C@H]1C4=C(CC[C@@]13C)C(=O)OC4)[C@H]2O [epitriptolide, 14-α-hydroxytriptolide] | – | – | approximately 30 fold | ~25 fold |
| CSCOC1C2(C(C)C)OC2C2OC23C2(C)CCC4=C(COC4=O)C2CC2OC213 (stereo not drawn) [14β-(methylthio)methyl triptolide, 14-β-(methylthio)methyl triptolide] | – | – | approximately 60 fold | ~40 fold |

Reference: US7417069B2, “Halogenated triptolide derivatives as immunomodulators and anticancer agents” (priority 2003, dated 2008)
